This passage reports TGI results from PubChem BioAssay (NCI).

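Each compound was tested at five concentrations against cells in 96-well plates for 48 hours. TGI denotes the concentration required for complete inhibition of growth.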 Some results are limits rather than exact numbers.

Experiment in all cases: NCI anticancer screen, dose series, 48 h
In test [1] the test system is ACHN renal.
The test system of test [2] is NCI-H460 lung.
For test [3], the system named is HL-60(TB) leukemia.
Test [4] has as its system T-47D breast.
In test [5] the test system is COLO 205 colon.
The subject of test [6] is RPMI-8226 leukemia.
The test system of test [7] is SK-MEL-5 melanoma.
Test [8] has as its system HCT-15 colon.

As to `CCN1CCC(O)(c2ccc(O)cc2)C(C(=O)c2ccc(O)cc2)C1` (stereo not drawn), the TGI in test [1] is 34 µM; in test [2], > 100 µM; in test [3], > 100 µM; in test [4] it was 32.9 µM; in test [5], 37.9 µM; in test [6] it was 33.4 µM. In addition, the TGI was found to be 22.7 µM in test [7] and 32.1 µM in test [8].
